Test results reported in ChEMBL document CHEMBL1153152, “Amino acid based enantiomerically pure 3-substituted benzofused heterocycles: A new class of antithrombotic agents” (Bioorg Med Chem Lett, 2010).

How the values were obtained:
Mus musculus [1] = assay: Antithrombotic activity in mouse assessed as protection against collagen and adrenaline-induced hind limb paralysis at 30 mg/kg, po for 60 mins; type: functional, Hindlimb
Mus musculus [2] = assay: Toxicity in mouse assessed as increase in bleeding time at 30 mg/kg, po; type: organism-based; design: dose 30 mg/kg, route oral; conditions: in vivo

Row | Compound | Activity (Mus musculus [1]) [%] | Activity (Mus musculus [2])
1 | Cc1ccc(S(=O)(=O)N2C[C@H](Cc3ccc(OCc4ccccc4)cc3)N(S(=O)(=O)c3ccc(C)cc3)Cc3ccccc32)cc1 | 20 | 4%
2 | Cc1ccc(S(=O)(=O)N2CCc3ccccc3OC[C@@H]2C)cc1 | 40 | Non-toxic
3 | Cc1ccc(S(=O)(=O)N2CCc3ccccc3OC[C@@H]2Cc2ccc(O)cc2)cc1 | 40 | Non-toxic
4 | COc1ccc2c(c1)CN(S(=O)(=O)c1ccc(C)cc1)[C@@H](CC(C)C)CO2 | 30 | 6%
5 | Cc1ccc(S(=O)(=O)N2C[C@H](Cc3ccccc3)N(S(=O)(=O)c3ccc(C)cc3)CCc3ccccc32)cc1 | 20 | 22%
6 | Cc1ccc(S(=O)(=O)N2Cc3ccccc3OC[C@@H]2CC(C)C)cc1 | 10 | 60%
7 | COc1cccc2c1OC[C@H](Cc1ccc(O)cc1)N(S(=O)(=O)c1ccc(C)cc1)C2 | 45 | 24%
8 | COc1ccc2c(c1)CN(S(=O)(=O)c1ccc(C)cc1)[C@@H](Cc1c[nH]c3ccccc13)CO2 | 20 | 12%
9 | Cc1ccc(S(=O)(=O)N2C[C@H](Cc3ccc(OCc4ccccc4)cc3)N(S(=O)(=O)c3ccc(C)cc3)CCc3ccccc32)cc1 | 30 | Non-toxic
10 | Cc1ccc(S(=O)(=O)N2Cc3ccccc3OC[C@@H]2C(C)C)cc1 | 20 | 22%
11 | Cc1ccc(S(=O)(=O)N2Cc3ccccc3OC[C@@H]2Cc2ccc(O)cc2)cc1 | 0 | Non-toxic
12 | Cc1ccc(S(=O)(=O)N2Cc3ccccc3OC[C@@H]2Cc2c[nH]c3ccccc23)cc1 | 40 | 33%
13 | Cc1ccc(S(=O)(=O)N2Cc3ccccc3OC[C@@H]2Cc2ccccc2)cc1 | 20 | Non-toxic
14 | Cc1ccc(S(=O)(=O)N2C[C@H](Cc3ccccc3)N(S(=O)(=O)c3ccc(C)cc3)Cc3ccccc32)cc1 | 20 | 13%
15 | Cc1ccc(S(=O)(=O)N2Cc3ccccc3SC[C@@H]2Cc2ccc(OCc3ccccc3)cc2)cc1 | 10 | 28%
16 | Cc1ccc(S(=O)(=O)N2Cc3ccccc3OC[C@@H]2C)cc1 | 20 | 25%
17 | CC(=O)Oc1ccccc1C(=O)O [ASPIRIN] | 37 | 100%
